From patent publication US9681664B2, “Macrocyclic picolinamides as fungicides” (Dow Agrosciences LLC, priority 2012, dated 2017)
Like-named read-outs stand apart in the source and are kept apart here.

Tests used:
Type in all cases: in vivo
[1] = system: Puccinia triticina; Synonym: Puccinia recondite f. sp. tritici; experiment: Wheat brown rust (PUCCRT) disease control on wheat seedlings; conditions: Puccinia triticina, High volume application, 100 ppm
How it was run: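 Yuma wheat grown to first fully emerged leaf was inoculated with Puccinia triticina spore suspension either before or after fungicide treatment, held overnight at 22° C. and 100% RH in darkness, then kept at 24° C. Fungicide applied by booth sprayer to run-off (acetone/water, 110 ppm Triton X-100) or as EC by track spray.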

Phakopsora pachyrhizi = experiment: Asian soybean rust (PHAKPA) disease control; conditions: topical, high volume
How it was run: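 Compounds in acetone diluted with nine volumes water containing 0.011% Tween 20, sprayed to run-off on two-week-old Williams 82 soybean seedlings, inoculated 3 days before or 1 day after treatment. Plants held 24 h in dark dew room at 22 °C, 100% RH, then at 23 °C; disease severity scored on sprayed leaves.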

[2] = system: Magnaporthe grisea; Anamorph: Pyricularia oryzae; experiment: whole plant or invertebrate; conditions: 24 h, read-out: PYRIOR 1 DP disease control
[3] = system: Blumeria graminis f. sp. hordei; Synonym: Erysiphe graminis f. sp. hordei; experiment: Barley powdery mildew (ERYSGH) disease control; conditions: 24 h, 1 Day Protectant, high volume, read-out: Disease Control ERYSGH 1 DP
Procedure: Technical grades of materials were dissolved in acetone, which were then mixed with nine volumes of water containing 110 ppm Triton X-100. The fungicide solutions were applied onto wheat seedlings using an automated booth sprayer to run-off. All sprayed plants were allowed to air dry prior to further handling. All fungicides were evaluated using the aforementioned method for their activity vs. all target diseases. Wheat leaf blotch and brown rust activity were also evaluated using track spray applications, in which case the fungicides were formulated as EC formulations, containing 0.1% Trycol 5941 in the spray solutions. Barley seedlings (variety Harrington) were propagated in soil-less Metro mix, with each pot having 8 to 12 plants, and used in the test when first leaf was fully emerged. Test plants were inoculated by dusting with infected stock plants 24 hr after fungicide treatments. After inoculation the plants were kept in a greenhouse set at 20° C. for disease to develop. Fungicide formulation, application and disease assessment on the sprayed leaves followed the procedures as described in the Example A.

[4] = system: Mycosphaerella graminicola; Anamorph: Septoria tritici; experiment: Leaf blotch of wheat (SEPTTR) disease control on wheat seedlings; conditions: Zymoseptoria tritici, High volume application, 100 ppm
How it was run: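 Protective or curative format: Septoria tritici inoculation either preceded or followed fungicide application to first-leaf Yuma wheat. Severity scored 0–100%; control expressed versus untreated.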

Cercospora beticola = experiment: Leaf spot of sugar beets (CERCBE) disease control; conditions: 24 h, 1 Day Protectant, high volume, read-out: Disease Control CERCBE 1 DP
Procedure: Technical grades of materials were dissolved in acetone, which were then mixed with nine volumes of water containing 110 ppm Triton X-100. The fungicide solutions were applied onto wheat seedlings using an automated booth sprayer to run-off. All sprayed plants were allowed to air dry prior to further handling. All fungicides were evaluated using the aforementioned method for their activity vs. all target diseases. Wheat leaf blotch and brown rust activity were also evaluated using track spray applications, in which case the fungicides were formulated as EC formulations, containing 0.1% Trycol 5941 in the spray solutions. Sugar beet plants (variety HH88) were grown in soil-less Metro mix and trimmed regularly to maintain a uniform plant size prior to test. Plants were inoculated with a spore suspension 24 hr after fungicide treatments. Inoculated plants were kept in a dew chamber at 22° C. for 48 hr then incubated in a greenhouse set at 24° C. under a clear plastic hood with bottom ventilation until disease symptoms were fully expressed. Fungicide formulation, application and disease assessment on the sprayed leaves followed the procedures as described in the Example A.

Uncinula necator = experiment: Grape powdery mildew (UNCINE) disease control; conditions: Erysiphe necator, 24 h, High volume application, 1 Day Protectant, read-out: UNCINE 1 DP disease control
Procedure: Technical grades of materials were dissolved in acetone, which were then mixed with nine volumes of water containing 110 ppm Triton X-100. The fungicide solutions were applied onto wheat seedlings using an automated booth sprayer to run-off. All sprayed plants were allowed to air dry prior to further handling. All fungicides were evaluated using the aforementioned method for their activity vs. all target diseases. Wheat leaf blotch and brown rust activity were also evaluated using track spray applications, in which case the fungicides were formulated as EC formulations, containing 0.1% Trycol 5941 in the spray solutions. Grape seedlings (variety Carignane) were grown in soil-less Metro mix, with one plant per pot, and used in the test when approximately one month old. Plants were inoculated 24 hr after fungicide treatment by shaking spores from infected leaves over test plants. Plants were maintained in a greenhouse set at 20° C. until disease was fully developed. Fungicide formulation, application and disease assessment on the sprayed leaves followed the procedures as described in the Example A.

[5] = 24 h, 1 Day Protectant, read-out: PUCCRT 1DP disease control
[6] = 72 h, 3 Day Curative, read-out: PUCCRT 3DC disease control
[7] = 24 h, 1 Day Protectant, read-out: Disease Control PHAKPA 1DP
[8] = 24 h, 1 Day Protectant, read-out: SEPTTR 1DP disease control
[9] = 72 h, 3 Day Curative, read-out: SEPTTR 3DC disease control
[10] = 72 h, 3 Day Curative, read-out: Disease Control PHAKPA 3DC

| SMILES | pest or weed control at 100 ppm [1, 5] [%] | pest or weed control at 100 ppm [1, 6] [%] | pest or weed control at 25 ppm (Phakopsora pachyrhizi; [7]) [%] | pest or weed control at 100 ppm [2] [%] | pest or weed control at 100 ppm [3] [%] | pest or weed control at 100 ppm [4, 8] [%] | pest or weed control at 100 ppm [4, 9] [%] | pest or weed control at 100 ppm (Cercospora beticola) [%] | pest or weed control at 100 ppm (Uncinula necator) [%] | pest or weed control at 25 ppm (Phakopsora pachyrhizi; [10]) [%] |
| --- | --- | --- | --- | --- | --- | --- | --- | --- | --- | --- |
| COc1ccnc(C(=O)N[C@H]2CCC[C@H](OCC(C)C)[C@@H](OCC(C)C)[C@H](C)OC2=O)c1OCOC(=O)C(C)C [F37] | 80 to 100 | 80 to 100 | 80 to 100 | 80 to 100 | 80 to 100 | 80 to 100 | 80 to 100 | 80 to 100 | 80 to 100 |  |
| COc1ccnc(C(=O)N[C@H]2CCC[C@H](OCC(C)C)[C@@H](OC3CCCC3)[C@H](C)OC2=O)c1OCOC(=O)C(C)C [F38] | 80 to 100 | 80 to 100 | 80 to 100 | 80 to 100 | 80 to 100 | 80 to 100 | 80 to 100 | 80 to 100 | 80 to 100 | 80 to 100 |
| COc1ccnc(C(=O)N[C@H]2CCC[C@H](OCC(C)C)[C@@H](OC3CCCC3)[C@H](C)OC2=O)c1OCOC(C)=O [F39] | 80 to 100 | 80 to 100 | 80 to 100 | 80 to 100 | 80 to 100 | 80 to 100 | 80 to 100 | 80 to 100 | 0 to 80 | 80 to 100 |
| COc1ccnc(C(=O)N[C@H]2CCC[C@H](Oc3ccccc3)[C@@H](OCCCc3ccccc3)[C@H](C)OC2=O)c1OCOC(C)=O [F130] | 80 to 100 | 80 to 100 | 80 to 100 | 80 to 100 | 0 to 80 | 80 to 100 | 80 to 100 | 80 to 100 | 0 to 80 | 0 to 80 |
| CCCO[C@H]1CCC[C@H](NC(=O)c2nccc(OC)c2OCOC(C)=O)C(=O)O[C@@H](C)[C@@H]1Oc1ccccc1 [F138] | 80 to 100 | 80 to 100 | 80 to 100 | 80 to 100 | 0 to 80 | 80 to 100 | 80 to 100 | 80 to 100 | 0 to 80 | 80 to 100 |
| CCCO[C@H]1CCC[C@H](NC(=O)c2nccc(OC)c2OCOC(=O)C(C)C)C(=O)O[C@@H](C)[C@@H]1Oc1ccccc1 [F139] | 80 to 100 | 80 to 100 | 80 to 100 | 80 to 100 | < 0 | 80 to 100 | 80 to 100 | 80 to 100 | 0 to 80 | 80 to 100 |
| CCCO[C@H]1CCC[C@H](NC(=O)c2nccc(OC)c2OC(=O)CCOC)C(=O)O[C@@H](C)[C@@H]1Oc1ccccc1 [F140] | 80 to 100 | 80 to 100 | 80 to 100 | 80 to 100 | 0 to 80 | 80 to 100 | 80 to 100 | 80 to 100 | 0 to 80 | 80 to 100 |
| CCCO[C@H]1CCC[C@H](NC(=O)c2nccc(OC)c2OC(C)=O)C(=O)O[C@@H](C)[C@@H]1Oc1ccccc1 [F141] | 80 to 100 | 80 to 100 | 80 to 100 | 80 to 100 | 80 to 100 | 80 to 100 | 80 to 100 | 80 to 100 | 0 to 80 | 80 to 100 |
| CCCO[C@H]1CCC[C@H](NC(=O)c2nccc(OC)c2OCOC(=O)C(C)C)C(=O)O[C@@H](C)[C@@H]1OC1CCCC1 [F154] | 80 to 100 | 80 to 100 | 80 to 100 | 80 to 100 | 80 to 100 | 80 to 100 | 80 to 100 | 80 to 100 | 0 to 80 | 80 to 100 |
| CCCO[C@H]1CCC[C@H](NC(=O)c2nccc(OC)c2OCOC(C)=O)C(=O)O[C@@H](C)[C@@H]1OC1CCCC1 [F155] | 80 to 100 | 80 to 100 | 80 to 100 | 80 to 100 | 80 to 100 | 80 to 100 | 80 to 100 | 80 to 100 | 0 to 80 | 80 to 100 |
| COc1ccnc(C(=O)N[C@H]2CCC[C@H](OC3CCCC3)[C@@H](OCCCc3ccccc3)[C@H](C)OC2=O)c1OCOC(C)=O [F165] | 80 to 100 | 80 to 100 | 80 to 100 | 80 to 100 | 0 to 80 | 80 to 100 | 80 to 100 | 80 to 100 | 0 to 80 | 0 to 80 |
| CCCCCO[C@H]1[C@H](C)OC(=O)[C@@H](NC(=O)c2nccc(OC)c2OCOC(C)=O)CCC[C@@H]1OC1CCCC1 [F166] | 80 to 100 | 80 to 100 | 80 to 100 | 80 to 100 | 80 to 100 | 80 to 100 | 80 to 100 | 80 to 100 | 0 to 80 | 80 to 100 |
| COc1ccc(O[C@H]2CCC[C@H](NC(=O)c3nccc(OC)c3OCOC(C)=O)C(=O)O[C@@H](C)[C@@H]2OC2CCCC2)cc1 [F170] | 80 to 100 | 80 to 100 | 80 to 100 | 80 to 100 | 0 to 80 | 80 to 100 | 80 to 100 | 80 to 100 | 0 to 80 | 0 to 80 |
